{
  "source": "patent US8481518B2",
  "about": "“Quaternary antimuscarinic compounds for the treatment of bladder diseases” (University of Rochester, priority 2003, dated 2013)",
  "origin": "cited, not measured here",
  "key": {"[1]": {"test_system": "all subtypes of human muscarinic receptors", "settings": "in vitro"}, "[2]": {"settings": "oral, 5 mg/kg four times/day"}, "[3]": {"settings": "intravesical instillation two to three times daily"}, "[4]": {"settings": "generally 25 mg twice daily, adults with urge incontinence"}, "[5]": {"test_system": "muscarinic receptors"}},
  "note": "Counter-ions that a name gives are not always drawn.",
  "data": [
    {"smiles": "C[N+]1(C)[C@@H]2C[C@@H](OC(=O)C(O)(c3cccs3)c3cccs3)C[C@H]1[C@@H]1O[C@@H]12", "note": "[tiotropium bromide, 6β,7β,Epoxy-3α-[2-hydroxy-2,2-di(2-thienyl)acetoxy]-8,8-dimethyl-1αH,5αH-tropanium bromide]", "values": [
      {"measurement": "antagonism at all subtypes of human muscarinic receptors", "setting": "[1]", "value": "10-11 M"}
    ]},
    {"smiles": "CCN(CC)CC#CCOC(=O)C(O)(c1ccccc1)C1CCCCC1", "note": "(stereo not drawn) [oxybutynin, (4-diethylamino)2-butynyl-cc-cyclohexyl-a-hydroxybenzeneacetate HCl]", "values": [
      {"measurement": "severe mouth dryness, subjects affected", "setting": "[2]", "value": 84, "unit": "%"},
      {"measurement": "patients dropping out due to inability to tolerate catheterization or difficulty retaining drug solution", "setting": "[3]", "value": 21, "unit": "%"}
    ]},
    {"smiles": "CC(CC(c1ccccc1)c1ccccc1)NC(C)(C)C", "note": "(stereo not drawn) [terodiline]", "values": [
      {"measurement": "effect on micturition frequency and incontinence episodes", "setting": "[4]", "value": "reduced micturition frequency and incontinence episodes"}
    ]},
    {"smiles": "COC(=O)C1=CC[C@@H]2CC[C@H]1N2C", "note": "[AEME, Anhydroecgonine methyl ester]", "values": [
      {"measurement": "cholinergic agonist activity", "setting": "[5]; guinea pig tracheal rings and detrusor muscle in vitro", "value": "lacked cholinergic agonist activity"},
      {"measurement": "muscarinic antagonism", "setting": "[5]; in vitro", "value": "potent non-competitive muscarinic antagonist"}
    ]}
  ]
}
